Reference: patent publication US10189862B2, “Phenothiazine-pyridine compounds and uses thereof” (The Chinese University of Hong Kong, priority 2016, dated 2019)
Like-named read-outs stand apart in the source and are kept apart here.

Experiments:
[1] = UV-Visible and fluorescence spectrometry; format: physicochemical; conditions: for λmax(nm)in EtOH: UV-Vis absorption maximum in EtOH; for Log ε: UV-Vis in EtOH; for λEm (nm): fluorescence emission, excited at 610 nm
Protocol: (§1) All of the new prepared phenothiazine-pyridine compounds are deep blue solid, the basic physiochemical properties are measured by UV-Visible and fluorescence spectrometry. […] The maximum absorption is about 650 nm in ethanol, and they are varied based on the compound structure. The fluorescence emission is about 680 nm when excited at 610 nm. All of these compounds have relatively high quantum yield, they are promising diagnostic and imaging agents. The lipophilicity is determined by the partition coefficient (log P), which can be obtained by measuring the UV-Vis absorption of the compound in phosphate buffer saline (PBS) before and after the partition equilibrium between n-octanol and PBS solution, and then calculated following the equation of: Log p=Log [(Abefore/Aafter)−1]. Wherein Abefore and Aafter are the absorption values in PBS solution before and after partition.

[2] = Partition coefficient (log P) between n-octanol and PBS by UV-Vis absorption; format: physicochemical
Protocol: as §1

[3] = tested on: normal fibroblast WI38 cells; assay: Dark toxicity, MTT assay; format: cell-based; conditions: Homo sapiens, read-out: IC50 dark toxicity
Protocol: (§2) Cell lines and culture conditions: A549, HT29, MCF-7, MDA-MB-231 cell lines were maintained in RPMI1640 supplemented with fetal bovine serum (10%) and penicillin-streptomycin solution (1%), and WI38 cells were maintained in DMEM supplemented with fetal bovine serum (10%) and penicillin-streptomycin solution (1%). Approximately 1×10^4 (for A549, HT29, MCF-7, MDA-MB-231) or 1.5×10^4 (for WI38) cells per well were seeded in 96-well plate and incubated overnight light at 37° C. in a humidified atmosphere with 5% CO2.
(§3) Dark toxicity: Cells were incubated with different concentrations of photosensitive drug for 24 h in dark, and the cell viabilities were determined by MTT assay
The IC50 values (50% inhibitory concentration) of the prepared phenothiazine-pyridine compounds 8, 14, 15, 16, 17, 18, 19, 20, 21, 22, 23, and 24 to normal fibroblast cell line WI38 were measured by MTT assay.

[4] = tested on: A549 cell line; assay: Photocytotoxicity (PDT), MTT assay; format: cell-based; conditions: Homo sapiens, read-out: IC50 PDT
Protocol: as §2
(§4) Photocytotoxicity: Cells were incubated with different concentrations of photosensitive drug for 1 h in the dark, then the medium in the well was sucked by a syringe, and washed by PBS. Then a solution of new medium was added, and illuminated by light. After irradiation, the cells were incubated under dark at 37° C. for another 24 h, and the cell viabilities were determined by MTT assay.

[5] = tested on: HT29 cell line; assay: Photocytotoxicity (PDT), MTT assay; format: cell-based; conditions: Homo sapiens, HT-29, light or radiation study, read-out: IC50 PDT
Protocol: as §2, §4

[6] = tested on: MCF7 cell line; assay: Photocytotoxicity (PDT), MTT assay; format: cell-based; conditions: Homo sapiens, read-out: IC50 PDT
Protocol: as §2, §4

[7] = tested on: A549 cell line; assay: Dark toxicity, MTT assay; format: cell-based; conditions: Homo sapiens, read-out: IC50 DK
Protocol: as §2, §3

[8] = tested on: HT29 cell line; assay: Dark toxicity, MTT assay; format: cell-based; conditions: Homo sapiens, read-out: IC50 DK
Protocol: as §2, §3

[9] = tested on: MCF7 cell line; assay: Dark toxicity, MTT assay; format: cell-based; conditions: Homo sapiens, read-out: IC50 DK
Protocol: as §2, §3

[10] = tested on: S. aureus; assay: Dark toxicity of photosensitizers on bacteria, CFU count; format: cell-based, Staphylococcus aureus; conditions: absence of light, 6 h
Protocol: (§5) Bacterial growth and culture: Gram-positive S. aureus or Gram-negative E. coli were grown on trypticase soy agar (TSA) for 24 h, then a colony was transferred into tryptica soy broth (TSB) and grown at 37° C. overnight at a 200 rpm speeds of shaking-up using a shaker incubator. The nutrient medium was centrifuged for 5 min at 8000 rpm and diluted by sterile 0.85% saline (pH 7.5) to concentrations of 10^8 CFU/ml, which was used for further incubation with photosensitizers in the following experiments.
(§6) Dark toxicities of the photosensitizers on bacteria: Bacterial suspensions were incubated with photosensitizers at various concentrations at 37° C. in the dark for 6 h. After that, 100 uL of cell suspension were spread on the TSA in 10-fold serial dilutions. Colony forming unit (CFU) was counted after incubation for 24 h at 37° C.

[11] = tested on: E. coli; assay: as above; format: cell-based, Escherichia coli; conditions: absence of light, 6 h
Protocol: as §5, §6

[12] = tested on: MDA-MB-231 cells; assay: Light dosage dependent photocytotoxicity, 635 Laser; format: cell-based; conditions: MDA-MB-231, 635 Laser
Protocol: as §2, §4
[…] After incubation for a further 24 h, 3-(4,5-Dimethylthiazol-2-yl)-2,5-diphenyltetrazolium bromide (MTT) were added and the cells were incubated for another 4 h. The medium were sucked by syringe, and dimethyl sulfoxide (DMSO) was added to fully dissolve the crystals, the optical density (OD) values were measured with a microplate reader, and the data were analyzed by GraphPad Prism 6.

[13] = tested on: S. aureus; assay: Photodynamic inactivation of bacteria, CFU count; format: cell-based, Staphylococcus aureus
Protocol: as §5
(§7) Photodynamic inactivation of bacteria: Bacterial suspensions (2×10^8 CFU/ml) were co-incubated with different concentrations of the photosensitizer for 10 min at 37° C., and then centrifuged, washed once with normal saline and resuspended in PBS saline. Aliquots of this suspension were placed into 24-well flat bottom plate and illuminated with laser light. After illumination, 100 uL of cell suspension were spread on the TSA in 10-fold serial dilutions and colony forming unit (CFU) was counted after incubation for 24 h at 37° C.

[14] = tested on: E. coli; assay: Photodynamic inactivation of bacteria, CFU count; format: cell-based, Escherichia coli
Protocol: as §5, §7

Row | Structure (SMILES) | λmax(nm)in EtOH [1] [nm] | Log ε [1] | λEm (nm) [1] [nm] | logP [2] | IC50 ([3]; WI-38, 24 h) [nM] | dark toxicity [10] | dark toxicity [11] | also measured
1 | CCN(CC)c1ccc2nc3c(cc(N)c4nc(C)ccc43)[s+]c2c1 [Compound 8, 5-amino-9-(diethylamino)-3-methylpyrido[3,2-a]phenothiazin-7-ium chloride] | 658 | 4.93 | 680 | 0.97 | > 10000 | essentially non-toxic | essentially non-toxic | IC50 ([4]; A549, light or radiation study): 1800 nM; IC50 [5]: 210 nM; IC50 ([6]; MCF7, light or radiation study): 500 nM; IC50 ([7]; A549, 24 h): 6500 nM; IC50 ([8]; HT-29, 24 h): 4600 nM; IC50 ([9]; MCF7, 24 h): 1100 nM
2 | CCCNc1cc2[s+]c3cc(N(CC)CC)ccc3nc2c2ccc(C)nc12.[Cl-] [Compound 14, 9-(diethylamino)-3-methyl-5-(propylamino)pyrido[3,2-a]phenothiazin-7-ium chloride] | 666 | 5.01 | 684 | 1.34 |  | essentially non-toxic | essentially non-toxic | IC50 ([3]; WI-38, WI38 cells, 24 h under dark, MTT): > 10000 nM; IC50 ([4]; light or radiation study, A549, 1 h incubation, 630 nm LED light 30 s, 3.2 J/cm^2, 24 h, MTT): 340 nM; IC50 ([5]; HT29, 1 h incubation, 630 nm LED light 30 s, 3.2 J/cm^2, 24 h, MTT): 39 nM; IC50 ([6]; light or radiation study, MCF7, 1 h incubation, 630 nm LED light 30 s, 3.2 J/cm^2, 24 h, MTT): 370 nM; IC50 ([7]; A549, 24 h under dark, MTT): 3100 nM; IC50 ([8]; HT-29, HT29, 24 h under dark, MTT): 2100 nM; IC50 ([9]; MCF7, 24 h under dark, MTT): 1900 nM; photocytotoxicity vs light dosage [12]: light dosage dependent photocytotoxicity; photocytotoxicity vs light dosage ([13]; 0.5 uM drug): light dosage dependent; eradication ([13]; 0.5 uM, 30 J/cm^2): about 99.9999%; log 10-reduction ([13]; 0.5 uM, 30 J/cm^2): ~6 log 10-reduction; photocytotoxicity vs light dosage ([14]; 6 uM drug): light dosage dependent; eradication ([14]; 6 uM, 50 J/cm^2): about 99.999%; log 10-reduction ([14]; 6 uM, 50 J/cm^2): ~5 log 10-reduction
3 | CCCCCNc1cc2[s+]c3cc(N(CC)CC)ccc3nc2c2ccc(C)nc12 [Compound 15, 9-(diethylamino)-3-methyl-5-(pentylamino)pyrido[3,2-a]phenothiazin-7-ium chloride] | 651 | 4.91 | 684 | 1.4 | > 10000 |  |  | 
4 | CCCCCCCNc1cc2[s+]c3cc(N(CC)CC)ccc3nc2c2ccc(C)nc12 [Compound 16, 9-(diethylamino)-5-(heptylamino)-3-methylpyrido[3,2-a]phenothiazin-7-ium chloride] | 651 | 4.89 | 684 | 1.44 | > 10000 |  |  | 
5 | CCCCCCCCCCNc1cc2[s+]c3cc(N(CC)CC)ccc3nc2c2ccc(C)nc12 [Compound 17, 5-(decylamino)-9-(diethylamino)-3-methylpyrido[3,2-a]phenothiazin-7-ium chloride] | 651 | 4.89 | 684 | 2.49 | 7000 |  |  | 
6 | CCN(CC)c1ccc2nc3c(cc(NC)c4nc(C)ccc43)[s+]c2c1 [Compound 18, 9-(diethylamino)-3-methyl-5-(methylamino)pyrido[3,2-a]phenothiazin-7-ium chloride] | 649 | 4.70 | 683 | 1.31 | 5000 |  |  | 
